What all share (test): relative viability (nuclei count vs DMSO), 5 days (fraction); higher = more cells survive
Compound in the assay “QS11 + Palbociclib”: C1CC2=C(C1)C=C(C=C2)OC3=NC(=C4C(=N3)N(C=N4)CC5=CC=C(C=C5)C6=CC=CC=C6)N[C@@H](CC7=CC=CC=C7)CO [QS11] + CC(=O)c1c(C)c2cnc(Nc3ccc(N4CCNCC4)cn3)nc2n(C2CCCC2)c1=O [Palbociclib] (partner 0.5 µM)
In outline:
(§1)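 Relative viability divides the nuclei count in treated wells by that in vehicle wells. Lung cancer cell lines were seeded in 1536-well plates, dosed by pin tool the next day, and fixed and stained after 5 days in one step with final 0.05% Triton X-100, 1% formaldehyde and 1 ug/ml Hoechst. Dosing was a single drug or a fixed anchor-drug dose plus five library-drug doses (not always all listed) in √10 steps, and values are medians of duplicate plates imaged at 4×.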

Compound in the assay “QS11 + Vorinostat”: C1CC2=C(C1)C=C(C=C2)OC3=NC(=C4C(=N3)N(C=N4)CC5=CC=C(C=C5)C6=CC=CC=C6)N[C@@H](CC7=CC=CC=C7)CO [QS11] + O=C(CCCCCCC(=O)Nc1ccccc1)NO [Vorinostat] (partner 1 µM)
In a few lines:
as §1

Compound in the assay “AZ628 + Pictilisib”: CC1=C(C=C(C=C1)NC(=O)C2=CC(=CC=C2)C(C)(C)C#N)NC3=CC4=C(C=C3)N=CN(C4=O)C [AZ628] + CS(=O)(=O)N1CCN(Cc2cc3nc(-c4cccc5[nH]ncc45)nc(N4CCOCC4)c3s2)CC1 [Pictilisib] (partner 1 µM)
In a few lines: as §1

Compound in assay [1]: C[As](C)SC[C@H](NC(=O)CC[C@H](N)C(=O)O)C(=O)NCC(=O)O [Darinaparsin] + CC(=O)Nc1cccc(-n2c(=O)n(C3CC3)c(=O)c3c(Nc4ccc(I)cc4F)n(C)c(=O)c(C)c32)c1 [Trametinib] (partner 0.02 µM)
In outline: as §1

Compound in assay [2]: C[As](C)SC[C@H](NC(=O)CC[C@H](N)C(=O)O)C(=O)NCC(=O)O [Darinaparsin] + N=C(N)NC(=N)NCCc1ccccc1 [Phenformin] (partner 250 µM)
In outline: as §1

LCLC-97TM1: the relative viability with QS11 + Palbociclib (first compound 0.253 µM) came to 0.204; in the assay with QS11 + Palbociclib (first compound 2.53 µM) it was 0.213; with QS11 + Palbociclib (first compound 8 µM), 0.277; with QS11 + Vorinostat (first compound 0.253 µM) it was 0.722; in the assay with QS11 + Vorinostat (first compound 2.53 µM), 0.615; with QS11 + Vorinostat (first compound 8 µM), 0.85. Moreover, the relative viability with AZ628 + Pictilisib (first compound 0.08 µM) amounted to 0.201; with AZ628 + Pictilisib (first compound 0.253 µM), 0.183; in the assay with AZ628 + Pictilisib (first compound 0.8 µM), 0.203; in the assay with AZ628 + Pictilisib (first compound 2.53 µM) it was 0.141; with AZ628 + Pictilisib (first compound 8 µM), 0.12; in assay [1] (first compound 0.08 µM), 0.264. Also, the relative viability in assay [1] (first compound 0.8 µM) is 0.237; in assay [1] (first compound 2.53 µM), 0.204; in assay [1] (first compound 8 µM), 0.225; in assay [2] (first compound 0.08 µM) it was 0.417; in assay [2] (first compound 0.8 µM), 0.412; in assay [2] (first compound 2.53 µM), 0.444. Also, the relative viability in assay [2] (first compound 8 µM) was found to be 0.302.

(Values after the supplement of paper PMC10307832.)
